From patent US11974992B2, “Use of serotonin 5-HT1A receptor agonists to treat diseases associated with sudden unexpected death in epilepsy” (Neurolixis, priority 2022, dated 2024)
Entries after “also recorded” stand apart in the source; their conditions may differ.

Assays:
humans = conditions: cited from earlier work
wild-type male mice = experiment: Maximal electroshock seizure (MES) test; format: in vivo, mouse; conditions: 0.02 to 2 mg/kg i.p., 30 and 120 min post-injection
Experimental: Seizures Induced in the Maximal Electroshock Seizure (MES) Test
Experiments were carried out in accordance with the National Institute of Neurological Disorders and Stroke (NINDS) Epilepsy Therapy Screening Program (https://panache.ninds.nih.gov/TestDescription/TestMES). The MES test was carried out using wild-type male mice. MES is a model for generalized tonic-clonic seizures and provides an indication of a compound's ability to prevent seizure spread when all neuronal circuits in the brain are maximally active (White H S, Johnson M, Wolf H H, Kupferberg H J. The early identification of anticonvulsant activity: role of the maximal electroshock and subcutaneous pentylenetetrazol seizure models. Ital J Neurol sci. 1995; 16:73-7). These seizures are highly reproducible and are electrophysiologically consistent with human seizures. Seizures were induced by a high frequency (60 Hz) of alternating current at 50 mA over a short duration (0.2 sec) delivered through corneal electrodes. Prior to stimulation, corneas were irrigated with 0.5% tetracaine hydrochloride for local anesthesia and 0.9% saline to improve electrical conductivity. Seizures induced by MES are characterized by tonic extension of forelimbs and hindlimbs that is followed by brief episodes of clonic activity of the forelimbs and hindlimbs. […]

wild-type male CF-1 mice = experiment: Seizures induced by corneal electrical stimulation (CES, 6 Hz, 44 mA); format: in vivo, mouse
Experimental: Seizures Induced by Corneal Electrical Stimulation (CES) in Wild-Type Mice
Experiments were carried out in accordance with the National Institute of Neurological Disorders and Stroke (NINDS) Epilepsy Therapy Screening Program (https://panache.ninds.nih.gov/TestDescription/Test6HZ). The CES test was carried out using wild-type male CF-1 mice. Seizures were induced by a low frequency (6 Hz, 0.2 msec rectangular pulse), long-duration (3 sec), 44 mA current (double the current producing seizures in 97% of animals) delivered through corneal electrodes (Barton M E, Klein B D, Wolf H H, White H S. Pharmacological characterization of the 6 Hz psychomotor seizure model of partial epilepsy. Epilepsy Res. 2001; 47:217-27). A drop of 0.5% tetracaine hydrochloride in 0.9% saline (anesthetic/electrolyte) solution was applied to the eyes just prior to the placement of corneal electrodes. The seizure in mice is characterized by an initial momentary stun followed immediately by jaw clonus, forelimb clonus, twitching of the vibrissae, and “Straub tail”. Animals not displaying this behavior within the one-minute observation period are considered “protected” from seizures.
Testing for anti-seizure activity in the CES model was performed with 4 male mice/dose/time point. […] of NLX-101 (0.02, 0.06, 0.5, 1 and 2 mg/kg i.p.) and two timepoints (30 and 120 min after drug administration) were tested.

FMR1 knock-out (KO) mice = experiment: Audiogenic tonic-clonic seizures (TCS) in FMR1 transgenic mice; format: in vivo, mouse
Experimental: Audiogenic Tonic-Clonic Seizures (TCS) in FMR1 Transgenic Mice
FMR1 knock-out (KO) mice were bred and weaned at postnatal day 21 (P21), and all mice were tested between P21 to P23. NLX-101 was administered at doses of 0.6, 1.2, 1.8 and 2.4 mg/kg i.p. Control FMR1 KO mice received saline. NLX-101 or saline was injected 10 min before subjecting the mice to the auditory stimulus.
To differentiate each mouse for post-hoc video analysis, mice were color coded prior to drug or saline administration. Mice (up to 4/cage) were then put in a cage with a lid; after 10 min, a speaker was placed on top of the lid, and the cage placed in a sound attenuation booth (Gretch-Ken Inc., OR); the auditory stimulus was a continuously alternating up and down frequency modulated sweep with frequencies between 2-8 kHz, presented at an intensity between 105-110 dB for 15 min. The procedure lasted a total of 20 min starting with 5 min of habituation (without a sound stimulus). The full 20-min procedure was video recorded for off-line analysis.
The typical behavior of FMR1 knock-out mice subjected to loud audio stimulus includes tonic-clonic seizures (TCS: the mouse lays on the cage bottom with hindlimb extension), and death by respiratory arrest (manifested by a deep respiratory gasp and relaxation of pinna).
The latency time (from the stimulus onset) to the occurrence of TCS and death were recorded with a stopwatch (precision: 1 sec). Survival analysis was used to analyze the probability of TCS or death by log-rank test.

[1] = tested on: mouse model of the Rett syndrome; conditions: cited from earlier work

| Structure (SMILES) | seizures in humans (humans) | occurrence of seizures in the MES test (wild-type male mice) | anti-seizure activity in the CES test (wild-type male CF-1 mice; 0.02 to 2 mg/kg i.p., 30 and 120 min) | mice with reduced seizure occurrence in the CES test (wild-type male CF-1 mice; highest dose tested (2 mg/kg i.p.), 30 min post injection) | number of FMR1 knock-out mice that died (FMR1 knock-out (KO) mice; 0.6-2.4 mg/kg i.p., 10 min before auditory stimulus, significant effects at 1.2, 1.8 and 2.4 mg/kg) | percentage of FMR1 knock-out mice displaying tonic-clonic seizures (FMR1 knock-out (KO) mice; 0.6-2.4 mg/kg i.p., 10 min before auditory stimulus, significant effects at 1.8 and 2.4 mg/kg) | mice protected from death (FMR1 knock-out (KO) mice; audiogenic tonic-clonic seizure model in FMR1 knock-out mice) | respiratory abnormalities [1] |
| --- | --- | --- | --- | --- | --- | --- | --- | --- |
| N#Cc1ccc2[nH]cc(CCCCN3CCN(c4ccc5oc(C(N)=O)cc5c4)CC3)c2c1 [vilazodone] | induces seizures |  |  |  |  |  |  |  |
| Cc1cnc(CNCC2(F)CCN(C(=O)c3ccc(F)c(Cl)c3)CC2)nc1 [NLX-101] |  | did not exhibit any anti-seizure activity; also recorded: did not affect the occurrence of seizures | did not exhibit any anti-seizure activity | 1 out of 4 | dose-dependently reduced | potently and efficaciously reduced seizures; also recorded: dose-dependently reduced | over 75% | improves the respiratory abnormalities |
